Source: patent US20010053333A1, “Antimicrobial flash-dry disinfectant aerosol” (priority 2000, published 2001)

Assay: Evaporation time for various aerosol sterilizer
Type: physicochemical
Text: Evaporation Time for Various Aerosol Sterilizer

For O [H2O], the “Evaporation Time: state” value (1 minute) was “wet”, the “Evaporation Time: state” value (2 minutes) was “wet” and the “Evaporation Time: state” value (5 minutes) was “humid”. The “Evaporation Time: state” value (15 minutes) was “droplets”, the “Evaporation Time: state” value (30 minutes) was “droplets” and the “Evaporation Time: state” value (40 minutes) was “droplets”. The “Evaporation Time: state” value (45 minutes) was “dry”.
